Data published in ChEMBL document CHEMBL1201862, “PubChem BioAssay data set” (2004).
The source made the active and inactive calls.

Legend:
[1] = biological target: Potassium voltage-gated channel subfamily KQT member 2 (Rattus norvegicus, UniProt O88943); experiment: retigabine-insensitive KCNQ2 potentiators, concentration-response, dose response, cell-based, retigabine-insensitive compounds (AID 2654); assay type: functional
[2] = biological target: Female germline-specific tumor suppressor gld-1 (Caenorhabditis elegans, UniProt Q17339); experiment: inhibitors of GLD-1 binding to TGE RNA, dose response, biochemical, fluorescence polarization, C. elegans (AID 2802);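 further: fluorescence polarization of labeled TGE RNA bound by purified gld-1 protein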
Sequence of Female germline-specific tumor suppressor gld-1 (Q17339 whole entry): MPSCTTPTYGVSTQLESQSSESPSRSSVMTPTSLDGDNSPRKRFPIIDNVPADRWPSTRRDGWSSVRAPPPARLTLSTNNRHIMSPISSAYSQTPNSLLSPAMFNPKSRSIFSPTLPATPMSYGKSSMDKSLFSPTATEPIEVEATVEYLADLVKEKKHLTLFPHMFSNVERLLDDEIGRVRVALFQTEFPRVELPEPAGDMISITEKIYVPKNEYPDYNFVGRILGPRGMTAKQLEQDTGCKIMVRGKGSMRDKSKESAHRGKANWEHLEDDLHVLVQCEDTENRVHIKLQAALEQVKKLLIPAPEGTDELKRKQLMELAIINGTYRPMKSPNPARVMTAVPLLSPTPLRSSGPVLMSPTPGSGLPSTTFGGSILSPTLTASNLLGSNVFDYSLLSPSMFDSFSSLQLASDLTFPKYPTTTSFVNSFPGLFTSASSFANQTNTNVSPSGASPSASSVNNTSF

[3] = biological target: T1, Long-chain-fatty-acid--AMP ligase FadD28 (Mycobacterium tuberculosis, UniProt P9WQ59); experiment: Fluorescence polarization aasay to screen for inhibitors that compete for the binding of FadD28 to a bisubstrate Measured in Biochemical System Using Plate Reader - 2147-01_Inhibitor_Dose_CherryPick_Activity.; assay type: functional, Mycobacterium tuberculosis H37Rv
T1 sequence (P9WQ59 whole entry): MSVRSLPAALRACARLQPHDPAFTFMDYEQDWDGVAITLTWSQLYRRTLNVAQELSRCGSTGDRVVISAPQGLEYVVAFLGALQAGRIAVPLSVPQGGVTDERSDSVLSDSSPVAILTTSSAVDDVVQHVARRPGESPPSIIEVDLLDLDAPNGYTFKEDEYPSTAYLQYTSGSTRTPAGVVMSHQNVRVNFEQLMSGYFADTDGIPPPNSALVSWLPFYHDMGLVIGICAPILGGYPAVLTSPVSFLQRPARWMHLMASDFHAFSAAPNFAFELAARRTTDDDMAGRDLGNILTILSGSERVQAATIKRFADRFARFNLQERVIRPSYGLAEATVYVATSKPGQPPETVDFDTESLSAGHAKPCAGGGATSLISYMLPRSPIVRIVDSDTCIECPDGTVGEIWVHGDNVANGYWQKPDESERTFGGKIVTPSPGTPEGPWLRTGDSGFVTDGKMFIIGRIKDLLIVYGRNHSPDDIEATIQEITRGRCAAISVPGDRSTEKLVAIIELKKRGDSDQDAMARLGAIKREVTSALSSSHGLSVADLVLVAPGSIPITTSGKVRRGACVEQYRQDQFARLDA

Protein Rev = Protein Rev (Human immunodeficiency virus type 1 group M subtype B (isolate HXB2)(HIV-1), UniProt P04618); experiment: inhibitors of Rev binding to RRE RNA, dose response, biochemical, fluorescence polarization, HIV-1 (AID 434976); design: species or system Human immunodeficiency virus 1
Sequence of Protein Rev (P04618 whole entry): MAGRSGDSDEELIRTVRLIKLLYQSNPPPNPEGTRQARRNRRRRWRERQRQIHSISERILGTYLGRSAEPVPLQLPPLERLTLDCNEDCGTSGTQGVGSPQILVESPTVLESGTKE

14-3-3 protein gamma = 14-3-3 protein gamma (Homo sapiens, UniProt P61981); experiment: modulators of 14-3-3 gamma client binding – dose response (AID 711); assay type: functional
Sequence of 14-3-3 protein gamma (P61981 whole entry): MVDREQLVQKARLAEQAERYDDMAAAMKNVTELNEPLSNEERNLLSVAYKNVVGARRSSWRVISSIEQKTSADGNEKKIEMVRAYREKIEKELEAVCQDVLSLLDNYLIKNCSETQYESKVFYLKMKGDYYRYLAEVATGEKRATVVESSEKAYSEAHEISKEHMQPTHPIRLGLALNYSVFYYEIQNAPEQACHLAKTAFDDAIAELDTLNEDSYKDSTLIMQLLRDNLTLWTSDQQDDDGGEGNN

Genome polyprotein = Genome polyprotein (dengue virus type 2, UniProt P29990); experiment: Dengue-2 NS5 methyltransferase inhibitors, primary screen, biochemical, confirmation dose response (AID 588689); assay type: functional
Sequence of Genome polyprotein (P29990 2492-3391 limits assumed): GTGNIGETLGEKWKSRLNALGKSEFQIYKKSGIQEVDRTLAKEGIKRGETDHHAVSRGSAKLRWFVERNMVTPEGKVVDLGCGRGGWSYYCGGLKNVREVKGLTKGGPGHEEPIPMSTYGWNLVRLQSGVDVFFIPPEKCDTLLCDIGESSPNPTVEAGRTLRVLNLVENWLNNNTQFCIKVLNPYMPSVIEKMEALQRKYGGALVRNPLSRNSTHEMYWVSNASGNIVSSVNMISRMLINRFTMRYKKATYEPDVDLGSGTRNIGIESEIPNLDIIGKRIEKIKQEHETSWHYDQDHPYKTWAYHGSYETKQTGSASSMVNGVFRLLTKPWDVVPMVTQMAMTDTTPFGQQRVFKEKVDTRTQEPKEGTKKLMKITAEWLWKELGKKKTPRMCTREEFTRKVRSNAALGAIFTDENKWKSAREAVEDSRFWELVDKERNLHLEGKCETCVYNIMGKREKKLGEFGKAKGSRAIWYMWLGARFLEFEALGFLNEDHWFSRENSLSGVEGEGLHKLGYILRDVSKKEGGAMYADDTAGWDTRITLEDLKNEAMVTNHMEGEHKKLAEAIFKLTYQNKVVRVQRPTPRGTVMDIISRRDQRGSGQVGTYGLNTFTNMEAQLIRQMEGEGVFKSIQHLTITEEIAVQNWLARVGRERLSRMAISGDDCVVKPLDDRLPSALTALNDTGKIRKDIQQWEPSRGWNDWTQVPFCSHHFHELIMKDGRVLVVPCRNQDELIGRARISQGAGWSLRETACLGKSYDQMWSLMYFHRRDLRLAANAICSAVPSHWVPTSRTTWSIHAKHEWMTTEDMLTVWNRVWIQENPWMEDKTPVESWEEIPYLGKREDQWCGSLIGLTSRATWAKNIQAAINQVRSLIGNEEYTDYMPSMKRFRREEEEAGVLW

[4] = inhibitors of HIV Env-driven cell fusion, dose response, cherry-pick (AID 652057); assay type: functional, cell-based
Caspase-3 [5] = biological target: T2, Caspase-3 (Homo sapiens, UniProt P42574); experiment: procaspase-3 activation potency of dual hits, dose response, counter-screen for dual procaspase-3/7 activator project, biochemical, absorbance, PC-3 D3A mutant (AID 504328)
T2 sequence (P42574 whole entry): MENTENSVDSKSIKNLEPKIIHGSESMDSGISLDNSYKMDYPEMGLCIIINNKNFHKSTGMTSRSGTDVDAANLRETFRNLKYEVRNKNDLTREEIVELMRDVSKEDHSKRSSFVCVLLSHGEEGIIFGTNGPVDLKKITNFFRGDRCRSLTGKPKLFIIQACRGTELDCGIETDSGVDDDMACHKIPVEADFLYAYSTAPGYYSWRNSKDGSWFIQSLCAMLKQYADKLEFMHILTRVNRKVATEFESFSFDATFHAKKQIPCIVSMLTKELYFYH

Caspase-7 [6] = biological target: T3, Caspase-7 (Homo sapiens, UniProt P55210); experiment: procaspase-7 activators, dose response, dual procaspase-3/-7 activator project, biochemical, absorbance, human (AID 504330)
T3 sequence (P55210 whole entry): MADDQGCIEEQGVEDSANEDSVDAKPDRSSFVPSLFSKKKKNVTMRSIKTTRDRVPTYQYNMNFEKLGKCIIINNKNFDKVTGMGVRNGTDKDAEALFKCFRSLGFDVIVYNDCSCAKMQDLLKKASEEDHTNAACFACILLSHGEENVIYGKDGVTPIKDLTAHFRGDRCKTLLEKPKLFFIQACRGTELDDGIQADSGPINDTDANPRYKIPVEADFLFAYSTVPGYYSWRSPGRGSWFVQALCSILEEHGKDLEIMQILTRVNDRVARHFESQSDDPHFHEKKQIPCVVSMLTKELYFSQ

Cytochrome P450 2D6 = Cytochrome P450 2D6 (Homo sapiens, UniProt P10635);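 further: CYP2D6 member of a cytochrome P450 panel assay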
Sequence of Cytochrome P450 2D6 (P10635 whole entry): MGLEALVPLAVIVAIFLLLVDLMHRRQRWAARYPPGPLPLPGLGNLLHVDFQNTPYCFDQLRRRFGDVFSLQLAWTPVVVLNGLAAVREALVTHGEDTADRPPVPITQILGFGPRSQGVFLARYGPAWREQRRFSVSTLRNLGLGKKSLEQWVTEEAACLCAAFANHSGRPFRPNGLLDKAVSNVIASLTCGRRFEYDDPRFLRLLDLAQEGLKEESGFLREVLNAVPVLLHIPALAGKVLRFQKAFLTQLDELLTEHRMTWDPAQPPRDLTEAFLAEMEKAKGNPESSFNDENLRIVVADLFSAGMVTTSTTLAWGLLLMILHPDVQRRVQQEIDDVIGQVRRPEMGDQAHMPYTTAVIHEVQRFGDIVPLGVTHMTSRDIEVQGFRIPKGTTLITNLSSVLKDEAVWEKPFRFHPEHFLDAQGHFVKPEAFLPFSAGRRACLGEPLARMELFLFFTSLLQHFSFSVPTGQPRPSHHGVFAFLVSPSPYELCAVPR

[7] = C. albicans growth with fluconazole, confirmation, fluorescence, retest (AID 2467); assay type: functional, cell-based
[8] = biological target: T4, Apoptotic protease-activating factor 1 (Homo sapiens, UniProt O14727); assay type: functional
T4 sequence (O14727 whole entry): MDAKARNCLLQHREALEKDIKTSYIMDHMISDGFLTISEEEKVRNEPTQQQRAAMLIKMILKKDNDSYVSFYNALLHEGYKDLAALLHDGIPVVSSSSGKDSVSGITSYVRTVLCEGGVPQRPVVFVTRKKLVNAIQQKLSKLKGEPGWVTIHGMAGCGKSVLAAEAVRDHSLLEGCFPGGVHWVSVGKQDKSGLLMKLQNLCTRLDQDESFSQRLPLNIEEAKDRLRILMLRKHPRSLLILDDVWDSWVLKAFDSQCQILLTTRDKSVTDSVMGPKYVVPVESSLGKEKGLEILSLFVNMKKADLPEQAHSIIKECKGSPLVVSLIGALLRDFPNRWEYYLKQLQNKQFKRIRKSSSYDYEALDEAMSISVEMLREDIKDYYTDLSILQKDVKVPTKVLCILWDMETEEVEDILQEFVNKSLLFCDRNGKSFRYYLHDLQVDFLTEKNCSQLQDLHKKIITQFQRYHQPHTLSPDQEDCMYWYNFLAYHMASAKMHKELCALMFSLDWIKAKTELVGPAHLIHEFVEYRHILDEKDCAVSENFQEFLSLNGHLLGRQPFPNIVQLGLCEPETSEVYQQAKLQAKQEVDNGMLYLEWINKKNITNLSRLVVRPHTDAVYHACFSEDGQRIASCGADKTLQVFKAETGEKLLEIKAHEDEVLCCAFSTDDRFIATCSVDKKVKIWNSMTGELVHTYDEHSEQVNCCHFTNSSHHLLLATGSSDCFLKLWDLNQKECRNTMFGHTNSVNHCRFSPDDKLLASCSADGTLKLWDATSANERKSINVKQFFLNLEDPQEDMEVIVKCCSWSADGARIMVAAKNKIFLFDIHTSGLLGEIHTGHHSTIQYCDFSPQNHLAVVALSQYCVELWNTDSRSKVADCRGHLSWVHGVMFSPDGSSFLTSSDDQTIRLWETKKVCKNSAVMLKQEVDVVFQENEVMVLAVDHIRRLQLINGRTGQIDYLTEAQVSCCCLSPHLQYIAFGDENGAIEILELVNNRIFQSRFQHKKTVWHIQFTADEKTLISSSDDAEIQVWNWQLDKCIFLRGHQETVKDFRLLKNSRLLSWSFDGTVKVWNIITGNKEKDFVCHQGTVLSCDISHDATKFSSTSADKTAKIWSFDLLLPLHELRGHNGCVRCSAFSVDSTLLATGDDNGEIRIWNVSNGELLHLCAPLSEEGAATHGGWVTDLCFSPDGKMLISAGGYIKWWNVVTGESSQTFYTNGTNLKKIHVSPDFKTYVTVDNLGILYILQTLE

[9] = HepG2 cell cytotoxicity, dose response, cytotoxicity control for Shn3 inhibitor project, CellTiter-Glo, cherry-picked (AID 624134); assay type: functional, cell-based
[10] = biological target: T5, Zinc finger protein mex-5 (Caenorhabditis elegans, UniProt Q9XUB2); experiment: MEX-5/TCR-2 RNA interaction inhibitors, dose response, biochemical, C. elegans, fluorescence polarization (AID 1960)
T5 sequence (Q9XUB2 whole entry): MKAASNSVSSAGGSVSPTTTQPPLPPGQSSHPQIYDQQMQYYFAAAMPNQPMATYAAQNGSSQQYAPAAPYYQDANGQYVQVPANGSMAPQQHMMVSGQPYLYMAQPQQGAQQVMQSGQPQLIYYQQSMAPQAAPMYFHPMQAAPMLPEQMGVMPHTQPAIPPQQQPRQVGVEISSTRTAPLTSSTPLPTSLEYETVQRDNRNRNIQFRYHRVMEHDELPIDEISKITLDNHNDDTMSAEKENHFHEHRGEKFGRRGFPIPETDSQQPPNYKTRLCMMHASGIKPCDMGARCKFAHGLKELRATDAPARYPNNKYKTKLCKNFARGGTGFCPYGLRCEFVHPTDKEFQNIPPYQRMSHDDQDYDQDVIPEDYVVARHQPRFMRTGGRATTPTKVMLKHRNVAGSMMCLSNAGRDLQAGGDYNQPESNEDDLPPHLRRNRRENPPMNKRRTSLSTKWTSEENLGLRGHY

Caspase-3 [11] = biological target: T2, Caspase-3; experiment: caspase-3 enzyme inhibitors, selectivity check, dose response, selectivity assay for caspase-6 allosteric inhibitor project, biochemical, fluorescence, cherry-picked samples (AID 743291)
[12] = NIH-3T3 fibroblast cytotoxicity, dose response, cytotoxicity control, cell-based, fluorescence, Alamar Blue, secondary assay (AID 2327); assay type: functional;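 further: NIH-3T3 mouse fibroblasts cultured with fluconazole at 8 µg/mL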
[13] = control 3'UTR Renilla luciferase suppression, dose response, counter-screen for Shn3 inhibitor project, cell-based, Clone20-Shn3RL, cherry-picked (AID 624133); assay type: functional
[14] = Shn3 3'UTR reporter inhibitors, dose response, cell-based, Clone20 osteoblasts, firefly luciferase, cherry-picked (AID 624132); assay type: functional;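 further: firefly luciferase luminescence from reporter carrying the Shn3 3'UTR in osteoblasts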
Caspase-8 = Caspase-8 (Homo sapiens, UniProt Q14790); experiment: caspase-8 inhibition counter-screen, dose response, selectivity assay for caspase-6 inhibitor project, biochemical, Z-IETD-R110 fluorescence, cherry-picked samples (AID 743294)
Sequence of Caspase-8 (Q14790 217-374 limits assumed): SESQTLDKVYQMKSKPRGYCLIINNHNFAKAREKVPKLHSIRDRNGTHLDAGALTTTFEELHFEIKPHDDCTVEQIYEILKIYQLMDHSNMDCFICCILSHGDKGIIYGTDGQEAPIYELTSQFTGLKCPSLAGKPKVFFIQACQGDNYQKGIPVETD
Sequence of Caspase-8 (Q14790 385-479 limits assumed): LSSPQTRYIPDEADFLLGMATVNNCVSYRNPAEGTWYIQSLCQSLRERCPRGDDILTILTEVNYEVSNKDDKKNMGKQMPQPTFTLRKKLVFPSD

[15] = biological target: G-protein coupled receptor 35 (Homo sapiens, UniProt Q9HC97); experiment: GPR35 antagonists blocking zaprinast-driven arrestin recruitment, primary screen, imaging, U2OS, beta-arrestin-GFP, zaprinast agonist (AID 2058); assay type: functional;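 further: antagonist potency meaning inhibition of agonist-induced arrestin redistribution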
Sequence of G-protein coupled receptor 35 (Q9HC97 whole entry): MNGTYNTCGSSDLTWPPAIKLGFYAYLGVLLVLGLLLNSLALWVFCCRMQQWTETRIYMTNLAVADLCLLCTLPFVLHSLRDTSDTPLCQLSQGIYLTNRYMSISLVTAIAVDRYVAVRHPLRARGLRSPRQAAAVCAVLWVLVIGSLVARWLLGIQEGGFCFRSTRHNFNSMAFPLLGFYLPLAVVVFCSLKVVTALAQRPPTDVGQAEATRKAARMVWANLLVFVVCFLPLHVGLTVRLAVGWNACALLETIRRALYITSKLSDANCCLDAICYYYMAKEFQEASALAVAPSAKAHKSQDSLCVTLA

Caspase-6 = biological target: T6, Caspase-6 (Homo sapiens, UniProt P55212); experiment: human caspase-6 inhibitors, dose response, biochemical, VEID-R110 fluorescence, cherry-pick (AID 720632)
T6 sequence (P55212 whole entry): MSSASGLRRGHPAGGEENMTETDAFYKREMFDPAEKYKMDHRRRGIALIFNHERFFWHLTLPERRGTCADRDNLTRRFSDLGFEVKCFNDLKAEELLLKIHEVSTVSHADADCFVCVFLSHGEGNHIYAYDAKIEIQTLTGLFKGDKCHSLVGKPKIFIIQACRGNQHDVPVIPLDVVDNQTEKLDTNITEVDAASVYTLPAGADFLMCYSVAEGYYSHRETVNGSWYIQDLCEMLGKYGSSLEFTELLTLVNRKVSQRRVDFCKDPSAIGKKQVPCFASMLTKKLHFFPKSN

Caspase-7 [16] = biological target: T3, Caspase-7; experiment: human caspase-7 inhibitors, dose response, selectivity assay for caspase-6 inhibitor project, biochemical, DEVD-R110 fluorescence, cherry-pick (AID 743295)
[17] = biological target: T7, RNA-binding protein pos-1 (Caenorhabditis elegans, UniProt G5EF15); experiment: inhibitors of POS-1/mex-3 RNA binding, dose response, biochemical, fluorescence polarization (AID 1964);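 further: purified POS-1 fused to maltose binding protein made in E. coli; potency of compounds blocking POS-1 binding to fluorescent RNA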
T7 sequence (G5EF15 whole entry): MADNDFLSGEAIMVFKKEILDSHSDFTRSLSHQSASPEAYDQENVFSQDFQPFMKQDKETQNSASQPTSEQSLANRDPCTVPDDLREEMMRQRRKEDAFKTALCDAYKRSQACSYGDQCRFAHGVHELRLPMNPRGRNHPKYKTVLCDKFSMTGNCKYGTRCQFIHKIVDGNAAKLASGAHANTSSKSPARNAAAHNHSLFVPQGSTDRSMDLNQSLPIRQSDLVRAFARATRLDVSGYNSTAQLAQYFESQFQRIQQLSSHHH

Sequence of Potassium voltage-gated channel subfamily KQT member 2 (O88943 whole entry): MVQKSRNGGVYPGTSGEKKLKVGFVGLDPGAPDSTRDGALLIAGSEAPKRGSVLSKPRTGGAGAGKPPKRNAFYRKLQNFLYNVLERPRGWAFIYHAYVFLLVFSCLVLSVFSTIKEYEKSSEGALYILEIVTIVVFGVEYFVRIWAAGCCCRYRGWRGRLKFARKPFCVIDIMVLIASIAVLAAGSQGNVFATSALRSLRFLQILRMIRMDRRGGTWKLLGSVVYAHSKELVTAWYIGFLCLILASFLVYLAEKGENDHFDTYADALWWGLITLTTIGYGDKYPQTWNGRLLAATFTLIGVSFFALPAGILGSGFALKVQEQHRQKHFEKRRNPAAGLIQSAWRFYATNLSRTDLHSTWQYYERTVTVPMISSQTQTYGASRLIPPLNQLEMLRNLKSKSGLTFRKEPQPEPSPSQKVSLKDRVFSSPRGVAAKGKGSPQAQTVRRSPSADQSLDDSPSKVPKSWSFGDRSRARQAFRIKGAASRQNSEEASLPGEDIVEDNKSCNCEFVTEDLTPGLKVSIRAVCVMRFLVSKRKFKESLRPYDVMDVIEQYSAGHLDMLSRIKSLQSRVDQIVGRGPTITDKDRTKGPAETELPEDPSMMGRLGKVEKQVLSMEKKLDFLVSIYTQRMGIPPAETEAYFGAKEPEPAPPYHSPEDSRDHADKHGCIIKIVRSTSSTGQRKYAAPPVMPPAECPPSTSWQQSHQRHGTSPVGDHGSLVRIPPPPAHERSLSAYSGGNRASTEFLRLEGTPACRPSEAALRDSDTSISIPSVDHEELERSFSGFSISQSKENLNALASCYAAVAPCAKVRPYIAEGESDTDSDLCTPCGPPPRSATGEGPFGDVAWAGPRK

For `Cc1ccc(NC(=O)Nc2cccnc2)cc1`, the EC50 [1] was 128 µM (active).

For `CCn1c(CSc2nnc3ccccn23)nc2cc(C(=O)O)ccc21`, the IC50 [2] was 11.2 µM (inactive), the AC50 [3] was 50.1 µM (active) and the IC50 (Protein Rev) was > 75.4 µM (not active). The IC50 (14-3-3 protein gamma) was 853 nM (active) and the IC50 (Genome polyprotein) was 23.2 µM (active).

In the case of `COc1ccc(Nc2ncc(C(=O)N3CCN(c4ccc(F)cc4)CC3)c3ccccc23)cc1`, the AC50 [4] was 49 µM (active), the EC50 (Caspase-3 [5]) was > 85.2 µM (inactive) and the EC50 (Caspase-7 [6]) was > 85.2 µM (inactive). The AC50 (Cytochrome P450 2D6) was 31.6 µM (inconclusive).

For `CCOc1ccc2nc3cc(NCc4ccc(OC)cc4)ccc3c(N)c2c1`, the EC50 [7] was 2.76 µM (active), the IC50 [8] was 23.5 µM (active) and the AC50 [9] was 16.5 µM (active). The EC50 [10] was 3.94 µM (active), the AC50 (Caspase-3 [11]) was 21.2 µM (active) and the EC50 [12] was > 150 µM (inconclusive). For the same molecule, the AC50 [13] was 23 µM (active), the AC50 [14] was 6.69 µM (active) and the AC50 (Caspase-8) was 25.9 µM (active). The IC50 [15] was 15.3 µM (inactive), the AC50 (Caspase-6) was 4.3 µM (active) and the AC50 (Caspase-7 [16]) was 9.75 µM (active). The EC50 [17] was 4.47 µM (active).
